Measured values taken from US5667764A, “Compounds, compositions and methods for binding bio-affecting substances to surface membranes of bio-particles” (Zynaxis, Inc., priority 1992, dated 1997).
Read-outs that look alike come from different tables or passages of the source. Values belong to the compound of their own block, whether it stands above or below them.

Columns and labels:
myointimal thickening = conditions: animal models; cited from earlier work
[1] = Source text: The HPLC system used comprised a Waters Model 600E solvent delivery system with W600E gradient controller, U6K injector and Model 990 photodiode array detector. Chromatography conditions were as follows: Column: Waters Nova-Pak (phenyl, 4 μm, 3.9 mm×15 cm); Mobile phase: Solvent A=Water:Methanol:Acetonitrile:PIC A reagent (Waters) (395:25:80:4), Solvent B=Water:Methanol: Acetonitrile:PIC A reagent (225:25:250:4), Solvent C=Methanol:Water:PIC A reagent (490:15:4). Gradient conditions: 100% (A) to 60%:40% (A:B) over 20 minutes then to 100% (C) over 10 minutes followed by 100% (C) for 40 minutes. Flow rate: 2 mL/min. Detection: photodiode array from 240-575 nm.
The rate of acid hydrolysis of hydrazone conjugate (19) to produce 7-N-(5-oxopentanoyl) deacetyl colchicine was studied by HPLC at 3 different pH's.
Buffer solutions were prepared according to the procedures described by Gomori, "Methods in Enzymology", 16:138 (1955). HPLC conditions and retention times were the same as described above.
Compound solutions to be studied were prepared by adding 50 μl of hydrazone conjugate solution (1 mg/ml of methanol) to a screw capped vial (1 ml) containing citrate phosphate buffer (200 μl) of the desired pH. The vials were kept closed and the solutions were analysed by HPLC (350 nm detection) for conjugate (19) remaining and 7-N-(5-oxopentanoyl) deacetyl colchicine produced at 24 h and 48 h. Each hplc injection was […].

A10 cells = experiment: Antiproliferative activity on A10 cells after one 10 minute application; format: cell-based, rat; conditions: for Cell count: 10 μM, 10 minute application
Experimental: To determine the antiproliferative action of the compounds of invention, in vitro studies were performed using A10 cells, a clonal cell line originally derived from the thoracic aorta of embryonic rats, that proliferate as myoblasts and develop into cells which phenotypically resemble smooth muscle cells (B. Kimes and B. Brandt, Exptl. Cell Res. 98:349 (1976). Typically, twelve-well plates were seeded with 2500-10,000 A10 cells/cm^2 in Dulbecco's Modified Eagles Medium (DMEM) with 10% fetal calf serum (FCS) and allowed to adhere and stabilize for 24 hours at 37° C. Test substances were then prepared in the required concentrations in appropriate cell binding media and, after aspirating the plating medium, applied to the individual wells at 37° C. for a period of only 10 minutes. The treatments were then aspirated, the wells washed 4 times with non-treatment containing medium and then placed in non-treatment containing DMEM with 10% FCS for the duration of the study. At various times after treatment application, triplicate wells were aspirated, the aspirate saved, and the wells treated with 0.25 ml of 0.25% trypsin to release the adherent cells. The enzymatic action of trypsin on the cells was stopped by addition of excess protein (1.75 ml DMEM+10% FCS), the aspirate returned to the wells, and an aliquot of the resultant cell suspension counted in a Coulter Counter (Model ZM with Sampling Stand II). Cell count was normalized to cells per square centimeter of growing area (surface area of well bottom).

[2] = tested on: lumenal surface of the femoral arteries; experiment: Retention at intravascular site; format: in vivo, rabbit
Experimental: To determine whether the compounds of the invention will remain at an intravascular site once applied experiments were performed wherein ^125 I-substituted lipophilic cyanine, prepared as described in Example 2 (compound 12, Reaction Scheme 2) was applied to the lumenal surface of the femoral arteries of anesthetized rabbits. The femoral artery was surgically isolated and a small, proximal side branch was cannulated with a short length of PE10 tubing. A 1 cm arterial segment surrounding the side branch was occluded and 20-50μl of a solution containing ^125 I-substituted compound 12 was administered through the cannula to the occluded section and allowed to remain for 5-10 min. The ^125 I-substituted compound was then withdrawn along with the cannula, the side branch was permanently tied, the femoral artery occlusion removed to allow the return of blood flow, and the femoral incision was closed. ^125 I-radioactivity was then monitored at selected times over the next 3 weeks with a Ludium Model 2200 Scaler Ratemeter and a Model 44-17 2 inch crystal with windows optimized for the detection of ^125 I.

[3] = tested on: rabbit red blood cell ghosts; experiment: Binding of anticoagulant conjugate to rabbit red blood cell ghosts; conditions: 24 h, 37° C.
Experimental: Ghosts were then washed extensively and placed in phosphate buffered saline with lmM EDTA and 5% BSA for 24 h at 37° C. Samples were agitated and a 50 μl aliquot removed from each sample and placed in 200 μl of Triton X-100® in a microtiter plate well (representingtotal suspension fluorescence). The original samples were centrifuged for 10 minutes and a 50 μl sample of the ghost supernatant removed and placed in 200 μl of Triton X-100® (representing free fluorescence in the aqueous phase only). The fluorescence of all samples was determined on a fluorometric microtiter plate reader. Bound fluorescence was determined by subtraction of free from total after correction for background fluorescence from unstained ghosts; the percent free and bound fluorescence was determined by dividing the bound and free fluorescence by total fluorescence, respectively and multiplying by 100.

[4] = labeling 10 μM (compound 7), 20 μM (conjugate, FITC-heparin)

Compound: CN(C/C=C/C#CC(C)(C)C)Cc1cccc2ccccc12 [Terbinafine]
Myointimal thickening (myointimal thickening): reduction of myointimal thickening

Compound: CC(C)[C@@H]1NC(=O)[C@H](CCCCN)NC(=O)[C@@H](Cc2c[nH]c3ccccc23)NC(=O)[C@H](Cc2ccc(O)cc2)NC(=O)[C@@H](NC(=O)[C@H](N)Cc2ccc3ccccc3c2)CSSC[C@@H](C(=O)N[C@H](C(N)=O)[C@@H](C)O)NC1=O [Angiopeptin]
Myointimal thickening (myointimal thickening): reduction of myointimal thickening

Compound: CCCCCCCCCCCCCCCCCCCCCCN1C(=CC=CC2=[N+](CCCCCCCCCCCCCC)c3ccc(CNC(=O)CCCC(=O)NN=CCCCC(=O)N[C@H]4CCc5cc(OC)c(OC)c(OC)c5-c5ccc(OC)c(=O)cc54)cc3C2(C)C)C(C)(C)c2ccccc21 [Compound 19, 7-N(5-oxopentanoyl) deacetyl colchicine Lipophilic Cyanine Hydrazone Conjugate]
Free colchicine hydrolysis product detected by HPLC ([1]; pH 4.21, 5.74, 7.35): the expected aidehyde, compound 18 | Cleavage of (19) to produce (18) ([1]; pH 4.21, 24 hours): 78% | Cleavage of (19) to produce (18) ([1]; pH 4.21, 48 hours): 100% | Cleavage of (19) to produce (18) ([1]; pH 5.74, 24 hours): 45% | Cleavage of (19) to produce (18) ([1]; pH 5.74, 48 hours): 100% | Cleavage of (19) to produce (18) ([1]; pH 7.35, 24 hours): 36% | Cleavage of (19) to produce (18) ([1]; pH 7.35, 48 hours): 77% | Cell count (A10 cells; day 0): 2291.12 cells per square centimeter | Cell count (A10 cells; day 1): 2625.33 cells per square centimeter | Cell count (A10 cells; day 2): 2369.45 cells per square centimeter | Cell count (A10 cells; day 3): 2206.27 cells per square centimeter | Cell count (A10 cells; day 6): 8800.26 cells per square centimeter | Cell count (A10 cells; day 7): 10895.65 cells per square centimeter | Cell-associated fluorescence (A10 cells; flow cytometry): significant cell-associated fluorescence

Compound: interferon-gamma
Myointimal thickening (myointimal thickening): reduction of myointimal thickening

Applied material (radioactivity) remaining within the artery ([2]; after first 24 hour, mean±sem, n=4): 34.0±10.9% | Elimination half-life after the first 24 hours ([2]; after first 24 hours): 365.8 ± 69.4 h | Initial elimination half-life ([2]; first 24 hour): 18.5 ± 6.96 h | Time detectable after application ([2]; rabbit, in vivo): at least 3 weeks
Compound: CCCCCCCCCCCCCCCCCCCCCCN1C(=CC=CC2=[N+](CCCCCCCCCCCCCC)c3ccccc3C2(C)C)C(C)(C)c2cc([125I])ccc21 [Compound 12, N-docosanyl-N'-tetradecyl-5-iodo-3,3,3',3'-tetramethylindocarbocyanine chloride]

% Bound ([3]; 5% BSA): 94.96% | % Free ([3]; 5% BSA): 5.04%
Compound: CCCCCCCCCCCCCCCCCCCCCC[N+]1=C(C=CC=C2N(CCCCCCCCCCCCCC)c3ccc(CNC=O)cc3C2(C)C)C(C)(C)c2ccccc21 [Compound 7, 1'-docosanyl-5(N-formylaminomethyl)-1-tetradecyl-3,3,3',3'tetramethylindocarbocyanine iodide]
Fluorescence intensity, supernatant [3, 4]: 73.69 | Fluorescence intensity, suspension [3, 4]: 1439.00
